# pIC50: −log10 of the molar value.
# Tests used:
# Type in all cases: biochemical
# [1] = molecular target: T1, Recombinant human AOC2 protein (Homo sapiens, UniProt O75106); assay: Inhibitory activity on AOC2
# T1 construct: Eli Lilly (provided, not a catalogue product)
# T1 sequence (O75106 1-756): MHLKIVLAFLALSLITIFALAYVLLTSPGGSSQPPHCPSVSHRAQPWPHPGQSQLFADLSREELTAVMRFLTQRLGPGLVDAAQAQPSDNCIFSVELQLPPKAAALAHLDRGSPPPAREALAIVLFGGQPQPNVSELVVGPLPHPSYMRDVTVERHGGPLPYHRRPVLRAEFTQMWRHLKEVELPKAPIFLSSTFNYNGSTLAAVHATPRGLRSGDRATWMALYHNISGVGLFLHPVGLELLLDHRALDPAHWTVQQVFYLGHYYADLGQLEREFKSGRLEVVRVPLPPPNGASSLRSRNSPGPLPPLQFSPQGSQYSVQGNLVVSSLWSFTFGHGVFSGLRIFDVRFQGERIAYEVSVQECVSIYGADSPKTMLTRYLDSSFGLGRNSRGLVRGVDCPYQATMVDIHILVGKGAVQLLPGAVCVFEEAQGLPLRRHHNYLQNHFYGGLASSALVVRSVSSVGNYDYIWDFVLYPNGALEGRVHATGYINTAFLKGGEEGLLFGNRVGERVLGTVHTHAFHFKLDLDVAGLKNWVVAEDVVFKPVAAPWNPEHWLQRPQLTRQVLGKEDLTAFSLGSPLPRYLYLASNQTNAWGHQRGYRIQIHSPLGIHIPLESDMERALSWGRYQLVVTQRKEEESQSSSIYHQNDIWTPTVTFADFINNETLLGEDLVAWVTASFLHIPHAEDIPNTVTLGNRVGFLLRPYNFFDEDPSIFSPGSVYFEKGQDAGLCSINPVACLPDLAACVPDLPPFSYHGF
# Method: Recombinant human AOC2 protein (provided by Eli Lilly). Other reagents are the same as those in Biological Test Example 1. The final concentration of test compound in 10 μL reaction system was 100 μM to 5 nM when AOC2 was detected, while other reaction conditions were the same as those in Biological Test Example 1. Data analysis and IC50 calculation method were the same as those in Biological Test Example 1.
# Recombinant human MAO-A = molecular target: T2, Recombinant human MAO-A (Homo sapiens, UniProt P21397); assay: Inhibitory activity on MAO-A
# T2 construct: purchased Sigma M7316
# T2 sequence (P21397 1-527): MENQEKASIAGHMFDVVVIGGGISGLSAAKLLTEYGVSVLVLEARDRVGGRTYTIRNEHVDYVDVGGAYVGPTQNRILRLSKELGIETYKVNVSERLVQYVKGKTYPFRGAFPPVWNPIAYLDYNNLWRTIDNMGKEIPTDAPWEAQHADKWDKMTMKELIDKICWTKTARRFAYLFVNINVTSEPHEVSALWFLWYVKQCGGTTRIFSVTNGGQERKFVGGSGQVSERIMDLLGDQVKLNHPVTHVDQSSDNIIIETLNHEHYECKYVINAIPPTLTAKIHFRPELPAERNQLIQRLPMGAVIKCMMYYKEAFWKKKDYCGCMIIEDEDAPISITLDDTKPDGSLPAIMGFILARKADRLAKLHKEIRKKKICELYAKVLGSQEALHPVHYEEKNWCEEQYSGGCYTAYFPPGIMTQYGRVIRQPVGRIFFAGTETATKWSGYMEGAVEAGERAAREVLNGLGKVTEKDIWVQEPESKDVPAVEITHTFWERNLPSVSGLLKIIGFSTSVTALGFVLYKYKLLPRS
# Method: (§1) Recombinant human MAO-A and MAO-B protein was purchased from Sigma (M7316, M7441). Other reagents are the same as Biological Test Example 1. The final concentration of test compound in 10 μL reaction system was 100 μM to 5 nM when MAO-A and MAO-B were detected. The final concentrations of MAO-A and MAO-B protein in 10 μL reaction system were 70 nM and 300 nM, respectively, while other reaction conditions were the same as those in Biological Test Example 1. Data analysis and IC50 calculation method were the same as those in Biological Test Example 1.
# Recombinant human MAO-B = molecular target: T3, Recombinant human MAO-B (Homo sapiens, UniProt P27338); assay: Inhibitory activity on MAO-B
# T3 construct: purchased Sigma M7441
# T3 sequence (P27338 1-520): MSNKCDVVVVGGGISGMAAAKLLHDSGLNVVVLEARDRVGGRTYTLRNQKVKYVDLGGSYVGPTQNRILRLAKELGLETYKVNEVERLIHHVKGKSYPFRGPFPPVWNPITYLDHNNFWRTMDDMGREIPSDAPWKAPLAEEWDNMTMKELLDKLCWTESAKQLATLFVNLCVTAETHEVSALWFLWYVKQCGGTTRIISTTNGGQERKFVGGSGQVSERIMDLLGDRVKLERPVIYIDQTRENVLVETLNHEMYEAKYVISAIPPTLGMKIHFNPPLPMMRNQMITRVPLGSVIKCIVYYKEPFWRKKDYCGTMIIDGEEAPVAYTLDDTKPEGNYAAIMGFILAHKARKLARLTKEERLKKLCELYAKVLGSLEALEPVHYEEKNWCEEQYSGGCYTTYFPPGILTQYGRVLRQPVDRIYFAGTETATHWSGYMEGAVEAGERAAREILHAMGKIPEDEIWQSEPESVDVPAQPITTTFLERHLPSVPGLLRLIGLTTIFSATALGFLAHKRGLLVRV
# Method: as §1
SMILES,pIC50 [1],pIC50 (Recombinant human MAO-A),pIC50 (Recombinant human MAO-B)
COC1CC2CC1CN2c1ncc(OC/C(=C/F)CN)cn1 (stereo not drawn) [Example 2],< 6.00,4.00 to 5.70,< 4.70
NC/C(=C\F)COc1cnc(N2CCN(c3cnc(N4CCN(C5COC5)CC4)nc3)CC2)nc1 [Example 9],6.00 to 7.00,< 4.00,< 4.70
N#Cc1cc(OC/C(=C/F)CN)cnc1N1CCN(C2COC2)CC1 [Example 7],< 6.00,< 4.00,4.70 to 5.30
CC1(C)CN(c2ncc(OC/C(=C/F)CN)cn2)CCN1C1COC1 [Example 10],< 6.00,< 4.00,< 4.70
NC/C(=C\F)COc1cnc(N2CC3CCC(C2)N3C2COC2)nc1 [Example 6],6.00 to 7.00,< 4.00,< 4.70
NC/C(=C\F)COc1cnc(N2CCC3(CC2)COC3)nc1 [Example 3],< 6.00,4.00 to 5.70,< 4.70
CC1(C)CN(C2COC2)CCN1c1ncc(OC/C(=C/F)CN)cn1 [Example 5],6.00 to 7.00,< 4.00,< 4.70
"NC/C(=C\F)COc1cnc(N2CCN(C3COC3)CC2)nc1 [Example 4, (E)-3-fluoro-2-(((2-(4-(oxbutan-3-yl)piperazin-1-yl)pyrimidin-5-yl)oxo)methyl)prop-2-en-1-amine]",< 6.00,< 4.00,< 4.70
COC1CC2CCC(C1)N2c1ncc(OC/C(=C/F)CN)cn1 (stereo not drawn) [Example 12],< 6.00,4.00 to 5.70,< 4.70
"CC1CN(c2ncc(OC/C(=C/F)CN)cn2)CC(C)N1C1COC1 (stereo not drawn) [Example 1, (E)-2-(((2-(3,5-dimethyl-4-(oxbutan-3-yl)piperazin-1-yl)pyrimidin-5-yl)oxo)methyl)-3-fluoroprop-2-en-1-amine]",6.00 to 7.00,< 4.00,< 4.70
NC/C(=C/F)COc1cnc(N2CCN(C3COC3)CC2)nc1 [Example 8],< 6.00,4.00 to 5.70,4.70 to 5.30

# Source: patent US12258336B2, “Preparation of seimicarbazide-sensitive amine oxidase inhibitor and use thereof” (SHANGHAI ENNOVABIO PHARMACEUTICALS CO., LTD., priority 2018, dated 2025)
